Results taken from US20210130346A1, “Bromodomain Inhibitors” (AbbVie Inc., priority 2017, published 2021).

Molecular target: BRD4 (BDI_K57-E168) (Homo sapiens, UniProt O60885)
Assay: TR-FRET bromodomain binding assay, BRD4 first bromodomain (BDI)
Details: mean Ki; 12 nM His tagged BRD4 (BDI_K57-E168), 100 nM Alexa647 probe; Ki calculated from IC50, probe Kd and probe concentration
Protocol: A time-resolved fluorescence resonance energy transfer (TR-FRET) assay was used to determine the affinities of compounds of the Examples listed in Table 1 for each bromodomain of BRD4. […] An Alexa647-labeled BET-inhibitor was used as the fluorescent probe in the assay.
Compound dilution series were prepared in DMSO via an approximately 3-fold serial dilution. Compound dilutions were added directly into white, low-volume assay plates (Perkin Elmer Proxiplate 384 Plus# 6008280) using a Labcyte Echo in conjunction with Labcyte Access and Thermo Multidrop CombinL robotics. Compounds were then suspended in eight microliters (μL) of assay buffer (20 mM Sodium Phosphate, pH 6.0, 50 mM NaCl, 1 mM Ethylenediaminetetraacetic acid disodium salt dihydrate, 0.01% Triton X-100, 1 mM DL-Dithiothreitol) containing His-tagged bromodomain, Europium-conjugated anti-His antibody (Invitrogen PV5596) and Alexa-647-conjugated probe.
After a one-hour equilibration at room temperature, TR-FRET ratios were determined using an Envision multilabel plate reader (Ex 340, Em 495/520).
TR-FRET data were normalized to the means of 24 no-compound controls (“high”) and 8 controls containing 1 μM un-labeled probe (“low”). Percent inhibition was plotted as a function of compound concentration and the data were fit with the 4 parameter logistic equation to obtain IC50s. Inhibition constants (Ki) were calculated from the IC50s, probe Kd and probe concentration.

Structure (SMILES) | Ki [µM]
CCNC(=O)c1cc2c([C@@H]3C[C@@]34C(=O)N(C)c3ccccc34)cn(C)c(=O)c2[nH]1 (racemic) [Example 1, rac-N-ethyl-6-methyl-4-[(1R,2S)-1′-methyl-2′-oxo-1′,2′-dihydrospiro[cyclopropane-1,3′-indol]-2-yl]-7-oxo-6,7-dihydro-1H-pyrrolo[2,3-c]pyridine-2-carboxamide] | 6.08
CN1C(=O)[C@@]2(C[C@H]2c2cn(C)c(=O)c3[nH]c(C(=O)NC4CC4)cc23)c2ccccc21 (racemic) [Example 2, rac-N-cyclopropyl-6-methyl-4-[(1R,2S)-1′-methyl-2′-oxo-1′,2′-dihydrospiro[cyclopropane-1,3′-indol]-2-yl]-7-oxo-6,7-dihydro-1H-pyrrolo[2,3-c]pyridine-2-carboxamide] | 5.42
CN1C(=O)[C@@]2(C[C@H]2c2cn(C)c(=O)c3[nH]c(C(=O)NC4CC(F)(F)C4)cc23)c2ccccc21 (racemic) [Example 5, rac-N-(3,3-difluorocyclobutyl)-6-methyl-4-[(1R,2S)-1′-methyl-2′-oxo-1′,2′-dihydrospiro[cyclopropane-1,3′-indol]-2-yl]-7-oxo-6,7-dihydro-1H-pyrrolo[2,3-c]pyridine-2-carboxamide] | 5.45
CN1C(=O)[C@@]2(C[C@H]2c2cn(C)c(=O)c3[nH]c(C(=O)Nc4ccccc4)cc23)c2ccccc21 (racemic) [Example 8, rac-6-methyl-4-[(1R,2S)-1′-methyl-2′-oxo-1′,2′-dihydrospiro[cyclopropane-1,3′-indol]-2-yl]-7-oxo-N-phenyl-6,7-dihydro-1H-pyrrolo[2,3-c]pyridine-2-carboxamide] | > 13
COc1ccc(NC(=O)c2cc3c([C@@H]4C[C@@]45C(=O)N(C)c4ccccc45)cn(C)c(=O)c3[nH]2)cc1 (racemic) [Example 9, rac-N-(4-methoxyphenyl)-6-methyl-4-[(1R,2S)-1′-methyl-2′-oxo-1′,2′-dihydrospiro[cyclopropane-1,3′-indol]-2-yl]-7-oxo-6,7-dihydro-1H-pyrrolo[2,3-c]pyridine-2-carboxamide] | 4.68
CN1C(=O)[C@@]2(C[C@H]2c2cn(C)c(=O)c3[nH]c(C(=O)Nc4cccc(CO)c4)cc23)c2ccccc21 (racemic) [Example 10, rac-N-[3-(hydroxymethyl)phenyl]-6-methyl-4-[(1R,2S)-1′-methyl-2′-oxo-1′,2′-dihydrospiro[cyclopropane-1,3′-indol]-2-yl]-7-oxo-6,7-dihydro-1H-pyrrolo[2,3-c]pyridine-2-carboxamide] | 2.05
CN1C(=O)[C@@]2(C[C@H]2c2cn(C)c(=O)c3[nH]c(C(=O)NC4CC4)cc23)c2ccc(F)cc21 (racemic) [Example 11, rac-N-cyclopropyl-4-[(1R,2S)-6′-fluoro-1′-methyl-2′-oxo-1′,2′-dihydrospiro[cyclopropane-1,3′-indol]-2-yl]-6-methyl-7-oxo-6,7-dihydro-1H-pyrrolo[2,3-c]pyridine-2-carboxamide] | 7.38
CN1C(=O)[C@@]2(C[C@H]2c2cn(C)c(=O)c3[nH]c(C(=O)NC4CC4)cc23)c2ccc(Cl)cc21 (racemic) [Example 12, rac-4-[(1R,2S)-6′-chloro-1′-methyl-2′-oxo-1′,2′-dihydrospiro[cyclopropane-1,3′-indol]-2-yl]-N-cyclopropyl-6-methyl-7-oxo-6,7-dihydro-1H-pyrrolo[2,3-c]pyridine-2-carboxamide] | 4.53
Cc1ccc2c(c1)N(C)C(=O)[C@@]21C[C@H]1c1cn(C)c(=O)c2[nH]c(C(=O)NC3CC3)cc12 (racemic) [Example 13, rac-N-cyclopropyl-4-[(1R,2S)-1′,6′-dimethyl-2′-oxo-1′,2′-dihydrospiro[cyclopropane-1,3′-indol]-2-yl]-6-methyl-7-oxo-6,7-dihydro-1H-pyrrolo[2,3-c]pyridine-2-carboxamide] | 2.95
COc1ccc2c(c1)N(C)C(=O)[C@@]21C[C@H]1c1cn(C)c(=O)c2[nH]c(C(=O)NC3CC3)cc12 (racemic) [Example 14, rac-N-cyclopropyl-4-[(1R,2S)-6′-methoxy-1′-methyl-2′-oxo-1′,2′-dihydrospiro[cyclopropane-1,3′-indol]-2-yl]-6-methyl-7-oxo-6,7-dihydro-1H-pyrrolo[2,3-c]pyridine-2-carboxamide] | 4.8
CN1C(=O)[C@@]2(C[C@H]2c2cn(C)c(=O)c3[nH]c(C(=O)NC4CC4)cc23)c2ccc(OC(F)(F)F)cc21 (racemic) [Example 15, rac-N-cyclopropyl-6-methyl-4-[(1R,2S)-1′-methyl-2′-oxo-6′-(trifluoromethoxy)-1′,2′-dihydrospiro[cyclopropane-1,3′-indol]-2-yl]-7-oxo-6,7-dihydro-1H-pyrrolo[2,3-c]pyridine-2-carboxamide] | 3.63

Next, values leading:

Ki [µM] | Structure (SMILES)
9.95 | CN1C(=O)[C@@]2(C[C@H]2c2cn(C)c(=O)c3[nH]c(C(=O)NC4CC4)cc23)c2cc(F)ccc21 (racemic) [Example 16, rac-N-cyclopropyl-4-[(1R,2S)-5′-fluoro-1′-methyl-2′-oxo-1′,2′-dihydrospiro[cyclopropane-1,3′-indol]-2-yl]-6-methyl-7-oxo-6,7-dihydro-1H-pyrrolo[2,3-c]pyridine-2-carboxamide]
> 13 | Cn1cc([C@@H]2C[C@@]23C(=O)Nc2ccccc23)c2cc(C(=O)NC3CC3)[nH]c2c1=O (racemic) [Example 19, rac-N-cyclopropyl-6-methyl-7-oxo-4-[(1R,2S)-2′-oxo-1′,2′-dihydrospiro[cyclopropane-1,3′-indol]-2-yl]-6,7-dihydro-1H-pyrrolo[2,3-c]pyridine-2-carboxamide]
4 | CCN1C(=O)[C@@]2(C[C@H]2c2cn(C)c(=O)c3[nH]c(C(=O)NC4CC4)cc23)c2ccccc21 (racemic) [Example 22, rac-N-cyclopropyl-4-[(1R,2S)-1′-ethyl-2′-oxo-1′,2′-dihydrospiro[cyclopropane-1,3′-indol]-2-yl]-6-methyl-7-oxo-6,7-dihydro-1H-pyrrolo[2,3-c]pyridine-2-carboxamide]
> 13 | Cn1cc(C2CC23C(=O)N(CC(F)(F)F)c2ccccc23)c2cc(C(=O)NC3CC3)[nH]c2c1=O (racemic) [Example 23, rac-N-cyclopropyl-6-methyl-7-oxo-4-[(1R,2S)-2′-oxo-′-(2,2,2-trifluoroethyl)-1′,2′-dihydrospiro[cyclopropane-1,3′-indol]-2-yl]-6,7-dihydro-1H-pyrrolo[2,3-c]pyridine-2-carboxamide]
9.22 | Cn1cc([C@@H]2C[C@@]23C(=O)N(C2CC2)c2ccccc23)c2cc(C(=O)NC3CC3)[nH]c2c1=O (racemic) [Example 26, rac-N-cyclopropyl-4-[(1R,2S)-1′-cyclopropyl-2′-oxo-1′,2′-dihydrospiro[cyclopropane-1,3′-indol]-2-yl]-6-methyl-7-oxo-6,7-dihydro-1H-pyrrolo[2,3-c]pyridine-2-carboxamide]
> 13 | COCCN1C(=O)[C@@]2(C[C@H]2c2cn(C)c(=O)c3[nH]c(C(=O)NC4CC4)cc23)c2ccccc21 (racemic) [Example 27, rac-N-cyclopropyl-4-[(1R,2S)-1′-(2-methoxyethyl)-2′-oxo-1′,2′-dihydrospiro[cyclopropane-1,3′-indol]-2-yl]-6-methyl-7-oxo-6,7-dihydro-1H-pyrrolo[2,3-c]pyridine-2-carboxamide]
